Reference: patent US10576145B2, “CD200 inhibitors and methods of use thereof” (REGENTS OF THE UNIVERSITY OF MINNESOTA, priority 2014, dated 2020)
Entries after “also recorded” stand apart in the source; their conditions may differ.

Assays:
[1] = tested on: GL261 tumor bearing mice; test: OVA+Poly:ICLC vaccination of GL261 tumor bearing mice +/- CD200R antagonist: OVA-specific CD8 T cells and recall cytokines; format: in vivo, C57BL/6 mice; conditions: for SIINFEKL-specific CD8 T cells (OVA-specific T cell expansion): blood, flow cytometry
Source text: FIGS. 2A-2B. FIG. 2A) Vaccination scheme. Tumor bearing or non-tumor bearing mice were vaccinated on day 2 and 8 with an agonist (4012) or antagonist (6059) only, and on days 3-6 and 10 with OVA+Poly:ICLC+/−the competitive inhibitor 6059 (antagonist of a agonist). FIG. 2B) Mice were bled on day 10, whole blood was stained with an anti-CD8 and SI[[N]]INFEKL (SEQ ID NO: 11) specific detramer, lysed and analyzed by flow cytometry.
FIGS. 3A-3B. Tumor bearing or non-tumor bearing mice were vaccinated on day 2 and 8 with an agonist or antagonist only, and on days 3-6 and 10 with OVA+Poly:ICLC+/−the competitive inhibitor 6059 (antagonist of a agonist). On day 10, were harvested and stimulated with OVA protein to measure a recall response via cytokine release. FIG. 3A) TNF alpha (PG/ML) levels from tumor bearing mice. FIG. 3B) INF gamma (PG/ML) levels in tumor bearing mice.
(§1) FIGS. 12A-12C. […] Tumor and non-tumor bearing mice were vaccinated with OVA+Poly:ICLC+/−the CD200R antagonist 6059 and analyzed for FIG. 12A) SIINFEKL/Kb+CD8+ T cell expansion (‘SIINFEKL’ disclosed as SEQ ID NO: 11). FIG. 12B) Lymphocytes were harvested and stimulated with SIINFEKL peptide (SEQ ID NO: 11). Supernatants were analyzed for TNFα and IFNγ secretion. FIG. 12C) The antagonist 6059 was added to OVA+exosomes. Error bars indicate +/−SEM (n=4/group; *P<0.05; by t-test). FIGS. 12A-12C discloses ‘SIINFEKL’ disclosed as SEQ ID NO: 11.
FIGS. 18A-18D. […] (FIG. 18A & FIG. 18B) Tumor bearing mice were vaccinated with OVA+Poly:ICLC+/−antagonist then analyzed for OVA-specific T cells and cytokine production following in vitro restimulation with OVA. Tumor bearing mice were vaccinated with saline (n=10), tumor lysate+CpG (n=10) or tumor lysate+CpG+antagonist 6059 (n=10). (FIG. 18C) Mice were imaged weekly for tumor growth and (FIG. 18D) followed for survival. Error bars are ±SEM, *p<0.05, ** p<0.001 was determined by one-way ANOVA, post hoc analysis by Dunn's multiple comparison test, log-rank analysis was used for survival. […]
Anti-mouse CD8α-Pacific Blue (clone 53-6.7) was purchased from eBioscience. A SIINFEKL/K^b dextramer-PE (‘SIINFEKL’ disclosed as SEQ ID NO: 11) was used for detection of SIINFEKL/K^b-binding CD8 T-cells (Immunodex) (‘SIINFEKL’ disclosed as BEQ ID NO: 11). […] A 100 μl sample of whole blood was immediately analyzed for percentage of MDSCs ((Lineage-FITC (CD3, CD14, CD16, CD19, CD20, CD56) CD33-APC, HLA-DR-PerCp)) by flow cytometry. Sera CD200 levels were determined by ELISA (Sino Biological Inc.).
Lymph nodes were homogenized in RPMI media containing 10% FBS, penicillin/streptomycin (100 U/ml), and 0.1 mg/ml Normocin (Invivogen). […] Fifty microliters of supernatant was analyzed for IFN-γ using a flow cytometric bead array according to the manufacturer's protocol (BD Biosciences).

[2] = tested on: non-tumor bearing mice; test: Vaccination of non-tumor bearing mice with OVA + glioma-derived exosomes + antagonist; format: in vivo
Method: as §1
Whether the different antagonists described by Gorczynski et. al. (J Surg Res 2008; 145(1): 87-96) could modulate or reverse the suppressive effects of the tumor microenvironment was also investigated. It was concluded that different antagonists either act through different CD200R isoforms or have different biological effects on the same receptor. These conclusions were supported by experiments where splenocytes were pulsed with OVA+selected CD200R antagonists (6061, 6069, 4004, 4006, 4013) for 24 hours. The splenocytes were then washed and cultured for 48 hours with the addition of OT-1 T cells. The cultures were then assessed for cytokine production using a flow cytometric bead array. […] Other antagonists were similarly evaluated.

In the case of NTIGDGGCY [Antagonist 6059], the “Suppressive effects of the tumor environment (overall statement)” value ([1]; prime boost model, tumor-bearing mice) is reported as “reversed the suppressive effects in tumor-bearing mice; also recorded: reverses the suppressive effects of the tumor environment; also recorded: blocks CD200 induced immune suppression”, the “SIINFEKL-specific CD8 T cells (OVA-specific T cell expansion)” value ([1]; tumor bearing mice, OVA+Poly:ICLC +/- antagonist) is reported as “reversed tumor induced suppression; also recorded: increased numbers of SIINFEKL-specific CD8 T-cells; also recorded: reversed the suppressive effects of the tumor microenvironment” and the “SIINFEKL-specific CD8 T cells (OVA-specific T cell expansion)” value ([1]; tumor bearing mice, OVA+Poly:ICLC +/- antagonist, listed as CD200 antagonist) is reported as “significantly enhanced the expansion of a SIINFEKL/CD8 T cell population”. For the same sequence, the “TNFα and IFNγ production after restimulation of cervical lymph node lymphocytes (recall response)” value ([1]; tumor bearing mice, OVA+Poly:ICLC +/- antagonist, restimulation with OVA/SIINFEKL, 48 hrs) was “modulate/reverse glioma-induced suppression; also recorded: significantly enhanced TNFγ and IFNγ production; also recorded: reversed the suppressive effects of the tumor microenvironment” and the “Suppression induced by glioma-derived exosomes” value [2] was “partially reversed the suppression induced by exosomes”.
